The experiment concerns T1, Wld^S.
T1 construct: gene Nmnat1; full-length Wld^S ORF (1119 bp): N-terminal Ube4b fragment fused to NMNAT1; predicted mass 44001 Da; with Ubiquitin conjugation factor E4 B
As to the kind of experiment: C18-HPLC of NAD formed, nonlinear fit. The class given is biochemical, Mus musculus. The settings on record: HEPES/KOH pH 7.5, MgCl2, 37°C. The source says: C18-HPLC of NAD formed, nonlinear fit on Wld^S

Read-outs that look alike come from different tables or passages of the source.

In the case of `Nc1ncnc2c1ncn2[C@@H]1O[C@H](COP(=O)(O)OP(=O)(O)OP(=O)(O)O)[C@@H](O)[C@H]1O` [ATP], where the note is “read-out: ATP / K m, co-substrate NMN, ATP 25–175 µM”, the Km is 29.6 ± 1.8 µM.

Turning to `NC(=O)c1ccc[n+]([C@@H]2O[C@H](COP(=O)(O)O)[C@@H](O)[C@H]2O)c1` [NMN], the Km (co-substrate ATP, NMN 5–100 µM, read-out: NMN / K m) is 32.2 ± 1.2 µM.

(Values after article PMC3534050, “Simultaneous Single-Sample Determination of NMNAT Isozyme Activities in Mouse Tissues” (PLoS ONE, 2012).)
